From patent US20080031903A1, “METHOD OF TREATING OCULAR INFECTIONS” (priority 2006, published 2008)
“And” between values parts separate entries of the source, which are not always exact repeats. Equal values may be shown once. “Also recorded” adds a separate entry of the source.

Experiments:
[1] = test system: Ad5 McEwen; assay: Ad5/NZW rabbit ocular model, Example 3 (Ad-R1); assay type: in vivo
Method: The purpose of this study is to determine the antiviral efficacy of a 100 mg/ml solution of human Intra Venous Immune Globulin (IG) in the Ad5/NZW rabbit ocular model.
Fifteen NZW female rabbits 2-3 lbs were received from Myrtle's Rabbitry, Thompson Station, Tenn. Fifteen rabbits were inoculated in both eyes following general anesthesia with ketamine & xylazine, topical anesthesia with proparacaine, and corneal scarification (12 cross-hatched strokes of a #25 needle) with 50 μl of 3.0×10^7 pfu/ml (1.5×10^6 pfu/eye or 1.5×10^8 vp/eye) of Ad5 McEwen (Stock P3, Feb. 25, 05, 5.3×10^8 pfu/ml). Eyes were closed and gently rubbed for 5 seconds to ensure contact of the virus on all ocular surfaces.
Eyes were cultured for virus after at least 3 hours (Day 0) after infection. Following topical anesthesia with proparacaine, a single cotton-tipped swab was placed into the lower fornix of each eye, rolled over the cornea into the upper fornix to recover adenovirus from the tear film and corneal and conjunctival surfaces. The swabs from each eye were placed individually into tubes containing 1 ml of outgrowth media and were frozen at −70° C. pending plaque assay. On Day 1, rabbits were divided into 3 treatment groups of 5 rabbits each. Two masked solutions were received. One solution contained 100 mg/ml of IG (Gammagard S/D) and one solution contained pharmaceutical grade saline for use as the negative control. The positive antiviral control, 0.5% cidofovir was not masked because of the differences in treatment regimen. The solutions were stored at 4° C. until and during use.
Drops were administered with at least a 1 hour interval between drops. All eyes from all groups were cultured for virus on days 1, 3, 4, 5, 7, 9, 11, and 14 at least one hour after the final doses of the treatments described above. At various times during the course of the experiment, Ad5 titers were determined on A549 cell monolayers using a standard plaque assay. The ocular cultures to be titered were thawed, diluted (1:10) and inoculated onto A549 monolayers. The virus was adsorbed for 3 hours. Following adsorption, 1 ml of media plus 0.5% methylcellulose was added to each well, and the plates were incubated at 37° C. in a 5% CO2-water vapor atmosphere. After 7 days incubation, the cells were stained with 0.5% gentian violet, and the number of plaques were counted under a dissecting microscope (25×). The viral titers were then calculated, and expressed as plaque-forming units per milliliter (pfu/ml).
Analysis of Results: Data were analyzed statistically using True Epistat and/or Minitab statistical software. Outcome measures included: Ad5-Positive Cultures per Total (Overall [Days 1-14]; Early Phase of Infection [Days 1-5]; Late Phase of Infection [Days 7-14]), Daily Viral Titers, Mean Viral Titer (Early Phase of Infection [Days 1-5]; Late Phase of Infection [Days 7-14]), and Duration of Shedding. Significance was established at the p≦0.05 confidence level.
Duration of viral shedding is shown in Table 8 and was statistically analyzed. The duration of viral shedding in IG treated animals was 5.4 days (standard deviation of 0.84 days). In the Cidofovir treated animals, the duration of viral shedding was 5.0 (SD=1.25 days) while it was longer in the normal saline treated group: 7.2 days (SD=1.14 days). The significant finding is represented graphically in FIG. 8. In this analysis, IG was similar to Cidofovir in reducing the duration of viral shedding.

[2] = test system: Ad5; assay: Ad5/NZW rabbit ocular model, combined analysis of Examples 3 and 5; assay type: in vivo
Description: The following summarizes the in vivo studies provided in Examples 3 and 5. Data from the two studies were combined, analyzed by Minitab statistical software using Analysis of Variance (ANOVA), and X^2 analyses. Significance was established at the p<0.05 confidence.
The daily reduction in percent Ad5 positive cultures per total for all treatment groups is presented graphically in FIG. 4.
The mean combined Ad5 ocular titers represent a global measure of adenovirus replication during the early and late phases of infection. These were determined by calculating the mean and standard deviation of all ocular cultures from each treatment group during the early and late phases (n=80 for all groups).
The mean duration of shedding was estimated by determining the last day on which adenovirus positive cultures were obtained and calculating the mean and standard deviation.

[3] = Days 1-5, Early Phase of Infection
[4] = Days 7-14, Late Phase of Infection

SMILES: Nc1ccn(C[C@@H](CO)OCP(=O)(O)O)c(=O)n1 [0.5% Cidofovir, Cidofovir]
- Daily Ad5 ocular titer, Median ([1]; D0): 2350 pfu/ml
- Daily Ad5 ocular titer, TrMean ([1]; D0): 2988 pfu/ml
- Daily Ad5 ocular titer, Mean ([1]; D0, N 10 eyes): 3214 pfu/ml
- Ad5 ocular viral titer, individual eye ([1]; D 0, after infection, before treatment): 2450 pfu/ml and 1950 pfu/ml and 4250 pfu/ml and 1100 pfu/ml and 2250 pfu/ml and 6650 pfu/ml and 7200 pfu/ml and 3100 pfu/ml and 2150 pfu/ml and 1040 pfu/ml
- Ad5 ocular viral titer, individual eye ([1]; D 1): 450 pfu/ml (2×) and 475 pfu/ml and 1000 pfu/ml and 5 pfu/ml and 550 pfu/ml (2×) and 1550 pfu/ml and 1800 pfu/ml and 330 pfu/ml
- Daily Ad5 ocular titer, Mean ([1]; D 1): 716 pfu/ml
- Daily Ad5 ocular titer, Median ([1]; D 1): 512 pfu/ml
- Daily Ad5 ocular titer, TrMean ([1]; D 1): 669 pfu/ml
- Ad5 ocular viral titer, individual eye ([1]; D 3): 4250 pfu/ml and 3800 pfu/ml and 2700 pfu/ml and 130 pfu/ml and 9350 pfu/ml and 8200 pfu/ml and 9300 pfu/ml and 100 pfu/ml and 350 pfu/ml and 210 pfu/ml
- Daily Ad5 ocular titer, Mean ([1]; D 3): 3839 pfu/ml
- Daily Ad5 ocular titer, Median ([1]; D 3): 3250 pfu/ml
- Daily Ad5 ocular titer, TrMean ([1]; D 3): 3617 pfu/ml
- Ad5 ocular viral titer, individual eye ([1]; D 4): 650 pfu/ml and 400 pfu/ml and 6700 pfu/ml and 1150 pfu/ml and 4700 pfu/ml and 2350 pfu/ml and 1800 pfu/ml and 25 pfu/ml and 0 pfu/ml and 80 pfu/ml
- Daily Ad5 ocular titer, Mean ([1]; D 4): 1785 pfu/ml
- Daily Ad5 ocular titer, Median ([1]; D 4): 900 pfu/ml
- Daily Ad5 ocular titer, TrMean ([1]; D 4): 1394 pfu/ml
- Ad5 ocular viral titer, individual eye ([1]; D 5): 550 pfu/ml and 10 pfu/ml and 1550 pfu/ml and 0 pfu/ml (3×) and 400 pfu/ml and 1400 pfu/ml and 1100 pfu/ml and 5 pfu/ml
- Daily Ad5 ocular titer, Mean ([1]; D 5): 501 pfu/ml
- Daily Ad5 ocular titer, Median ([1]; D 5): 205 pfu/ml
- Daily Ad5 ocular titer, TrMean ([1]; D 5): 433 pfu/ml
- Ad5 ocular viral titer, individual eye ([1]; D 7): 0 pfu/ml (8×) and 5 pfu/ml and 15 pfu/ml
- Daily Ad5 ocular titer, Mean ([1]; D 7): 2.00 pfu/ml
- Daily Ad5 ocular titer, Median ([1]; D 7): 0.00 pfu/ml
- Daily Ad5 ocular titer, TrMean ([1]; D 7): 0.62 pfu/ml
- Ad5 ocular viral titer, individual eye ([1]; D 9): 0 pfu/ml
- Daily Ad5 ocular titer, Mean ([1]; D 9): 0.00000 pfu/ml
- Daily Ad5 ocular titer, Median ([1]; D 9): 0.00000 pfu/ml
- Daily Ad5 ocular titer, TrMean ([1]; D 9): 0.00000 pfu/ml
- Ad5 ocular viral titer, individual eye ([1]; D 11): 0 pfu/ml
- Daily Ad5 ocular titer, Mean ([1]; D 11): 0.00000 pfu/ml
- Daily Ad5 ocular titer, Median ([1]; D 11): 0.00000 pfu/ml
- Daily Ad5 ocular titer, TrMean ([1]; D 11): 0.00000 pfu/ml
- Ad5 ocular viral titer, individual eye ([1]; D 14): 0 pfu/ml
- Daily Ad5 ocular titer, Mean ([1]; D 14): 0.00000 pfu/ml
- Daily Ad5 ocular titer, Median ([1]; D 14): 0.00000 pfu/ml
- Daily Ad5 ocular titer, TrMean ([1]; D 14): 0.00000 pfu/ml
- Positive Cultures per Total ([1]; Day 0, before treatment): 10/10
- Positive Cultures per Total, percent ([1]; Day 0, before treatment): 100%
- Positive Cultures per Total ([1]; Day 1): 10/10
- Positive Cultures per Total, percent ([1]; Day 1): 100%
- Positive Cultures per Total ([1]; Day 3): 10/10
- Positive Cultures per Total, percent ([1]; Day 3): 100%
- Positive Cultures per Total ([1]; Day 4): 9/10
- Positive Cultures per Total, percent ([1]; Day 4): 90%
- Positive Cultures per Total ([1]; Day 5): 7/10
- Positive Cultures per Total, percent ([1]; Day 5): 70%
- Positive Cultures per Total ([1]; Day 7): 2/10
- Positive Cultures per Total, percent ([1]; Day 7): 20%
- Positive Cultures per Total ([1]; Day 9): 0/10
- Positive Cultures per Total, percent ([1]; Day 9): 0%
- Positive Cultures per Total ([1]; Day 11): 0/10
- Positive Cultures per Total, percent ([1]; Day 11): 0%
- Positive Cultures per Total ([1]; Day 14): 0/10
- Positive Cultures per Total, percent ([1]; Day 14): 0%
- Positive Cultures per Total, Total [1, 3]: 36/40
- Positive Cultures per Total, Total (%) [1, 3]: 90%
- Positive Cultures per Total, Total ([1]; Days 1-14): 38/80
- Positive Cultures per Total, Total (%) ([1]; Days 1-14): 47.5%
- Positive Cultures per Total, Total (%) ([1]; Days 1-14, listed as Cidofovir): 47.5%
- Positive Cultures per Total, Total [1, 4]: 2/40
- Positive Cultures per Total, Total (%) [1, 4]: 5%
- Positive Cultures per Total, Total (%) ([1]; Days 7-14, Late Phase of Infection, listed as Cidofovir): 5%
- Mean Combined Ocular Titers Days 7-14, comparison ([1]; Late Phase): significantly lower Mean Combined Ocular Titers Days 7-14 compared with NPR
- Positive Cultures per Total Days 7-14, comparison ([1]; Late Phase): significantly fewer Positive Cultures per Total Days 7-14 compared with NPR
- Antiviral efficacy, conclusion ([1]; compared to Saline control): demonstrated its proven antiviral efficacy
- Mean Daily Ocular Titers, statistical comparison ([1]; days as stated): significantly lower titers on Days 1 and 7 compared with NPR
- Duration of Shedding, individual eye ([1]; final day with positive Ad5 culture, listed as CDV): 5 days (5×) and 4 days (2×) and 7 days (2×) and 3 days
- Duration of viral shedding, group mean ([1]; mean of 10 eyes): 5.0 days
- Mean Duration of Shedding, comparison ([1]; rabbit, in vivo): significantly shorter durations of shedding compared with the NPR
- Adenoviral Positive Culture/total, Early Phase ([2]; Days 1-5): 72/80
- Adenoviral Positive Culture/total, Early Phase, percent ([2]; Days 1-5): 90.0%
- Mean Combined Ad5 titer, Early Phase, Mean ± Sd ([2]; Days 1-5, n = 80): 1.4 ± 2.1 × 10^3 pfu/ml
- Adenoviral Positive Culture/total, Overall ([2]; Days 1-14): 78/160
- Adenoviral Positive Culture/total, Overall, percent ([2]; Days 1-14): 48.75%
- Adenoviral Positive Culture/total, Late Phase ([2]; Days 7-14): 6/80
- Adenoviral Positive Culture/total, Late Phase, percent ([2]; Days 7-14): 7.5%
- Mean Combined Ad5 titer, Late Phase, Mean ± Sd ([2]; Days 7-14, n = 80): 0.8 ± 0.4 × 10^0 pfu/ml
- Duration of Ad5 Shedding, Mean ± Sd ([2]; n = 20): 5.3 ± 1.3 days
- Antiviral activity, overall comparison ([2]; rabbit, in vivo): equivalent antiviral inhibitory activity
- Duration of shedding, comparison ([2]; rabbit, in vivo): significantly decreased the duration of shedding compared with the saline control; also recorded: significantly decreased the Mean Duration of shedding compared with IG
